Laboratory results from PMC12439141, “Self-Assembling Hydrogels of Naproxen-Conjugated Peptides for Osteoarthritis Treatment” (Theranostics, 2025).

Assays:
[1] = test system: LPS-stimulated RAW264.7 cells; assay: COX-2 and pro-inflammatory factor expression (qRT-PCR, immunofluorescence); type: cell-based, mouse; settings: RAW264.7, 1 µg/mL LPS, 400 µM; 6 h, 12 h (PCR), 12 h or 24 h (immunofluorescence)
Method: After treatment, cells were harvested and total RNA was extracted using a total RNA purification kit (SparkJade, China), and cDNA was obtained from total RNA by a reverse transcription kit (SparkJade). Finally, qRT-PCR was performed using SYBR Green qPCR premix (SparkJade) on QuantGene 9600 real-time PCR (Bioer, Hangzhou, China). 2 Calculation of Relative Gene Expression-ΔΔCT method was used, and GAPDH was used as an internal reference gene.
Immunofluorescence staining was performed following a general procedure. After treatment, cells were fixed with 4% paraformaldehyde for 20 min, and permeabilized in 0.5% Triton X-100 for 5 min. 10% goat serum was used to block non-specific binding. Cells were then incubated with primary antibodies overnight. Then cells were incubated with fluorescently labeled secondary antibody for 1 h. […] For assessing RAW264.7 macrophage polarization, permeabilization procedure is not needed; anti-CD86 and anti-CD163 primary antibodies were used for identifying M1 macrophage or M2 macrophage, respectively. Primary antibodies included: anti-CD86 (1:300), anti-CD163 (1:300), anti-COX2 (1:300) and anti-COL2 (1:300). Cy3 or FITC labeled secondary antibodies were used for fluorescent imaging.

[2] = Zeta potential measurements; type: physicochemical; settings: 400 µM; pH:7.2 (Figure 2F legend), text says physiological pH 7.4
Description: Scale bars represent 200 nm.
Under physiological conditions, glutamic acid carries a negative charge, while histidine, lysine, and arginine carry positive charges.

[3] = test system: C28/I2 chondrocytes; assay: Chondrocyte proliferation (Calcein-AM staining and MTT quantification); type: cell-based, human; settings: C28/I2 chondrocytes, 1, 2 and 3 days, compared to non-treated control
[4] = test system: LPS-stimulated RAW264.7 cells; assay: ELISA quantification of PGE2; type: cell-based, mouse; settings: 400 µM, 6 h, 12 h, n = 3
Description: Figure 4 COX-2 inhibition of NpxFFK. (A) molecular docking of COX-2 (PDB ID: 6COX) with NpxFFK. (B) Binding of NpxFFK with amino acid residues in the active pocket of COX-2. (C) Schematic representation of the anti-inflammatory mechanism of Npx and the peptide NpxFFK. […] Scale bars represent 200 µm. […] The blank groups in panel D-G referred to the RAW264.7 cells without stimulation of LPS.

[5] = test system: OA rat model; assay: Footprint gait analysis in MIA-induced OA rats; type: in vivo, SD rats; settings: IA injection, 100 mg/kg, 2 weeks
Method: The OA model was induced by local injection of 50 µL/1mg sodium iodoacetate (MIA) into the joint cavity of each rat. Rats injected with saline were treated as the sham group (n = 6). […] Each group contained 6 rats. 50 µL drugs were injected locally at day 0 and day 14, respectively. After 14 days of treatment, the rats were examined by indentation-collecting gait analysis, after which the rats were euthanized with isoflurane, and the knee joints were sampled for gross morphological observation. After 28 days of treatment, sampling was performed for micro-CT analysis, histological staining and immunohistochemistry.
The cardboard is laid flat on the floor. Both forelimbs of the rats were covered with blue ink and both hind legs with red ink, ensuring that the movements of the animals were as clear as possible. The sides of the runway consisted of cardboard, and the width was rationalized according to the weight and size of the rat. The room environment was kept quiet and the rats were placed on one side of the runway and allowed to pass freely. Before the start of the experiment, the rats were given two consecutive days of behavioral acclimatization training.

[6] = test system: OA rat model; assay: Immunofluorescence and immunohistochemistry of joint sections in OA rats; type: in vivo, SD rats; settings: 100 mg/kg IA, 4 weeks
Method: The knee joints were fixed in 4% paraformaldehyde, decalcified for 4 weeks, and embedded in paraffin for histological evaluation. Subsequently, the samples were sectioned and stained with hematoxylin and eosin (H&E) as well as […]/Fast Green. An enhanced Mankin scoring system was used to assess the pathologic status of the knee joint. Sections were incubated overnight at 4 °C with primary antibodies and further stained with a fluorescently labeled secondary antibody or 3,3'-diaminobenzidine (DAB)-tagged secondary antibody for immunohistochemical analysis.

[7] = TEM imaging of assemblies; type: physicochemical; settings: TEM images
Method: (C) FTIR spectra of NpxFFR (light green), NpxFFK (orange), NpxFFH (dark green), NpxFFE (purple) and Npx (medium spring green). (D) Hydrogel formation of Npx-peptide conjugates at 20 mg/mL concentration in ddH2O. […] (F) Zeta potential measurements of 400 µM Npx-peptide conjugates at pH:7.2. (G) TEM images of Npx and Npx-peptide conjugates. Scale bars represent 200 nm.

[8] = ABTS+ free radical scavenging test; settings: PBS (pH 7.2), 400 µM, 30 mins, 25 °C, absorbance 734 nm, n = 3
Method: (§1) DPPH free radical scavenging test
(§2) DPPH (2, 2-Diphenyl -1-[…]) radical solution (0.58 mg/mL) was prepared by dissolving DPPH radical in anhydrous ethanol. Briefly, 6mg of […]
(§3) solution which were then incubated in dark for 2 h at 25°C. The absorbance of the mixed solution at 517 nm was measured using an enzyme-labeled instrument. The scavenging ability was calculated as DPPH free radical scavenging rate (%) = [(A0-A1)/A0] × 100%, where A0 is the absorbance of DPPH free radical solution, A1 is the absorbance of sample group. The experiment was repeated three times for each sample.
(§4) ABTS·+ free radical scavenging test […]
(§5) free radical solution, and then incubated at 25 °C for 30 mins in dark. The absorbance at 734 nm was measured using an enzyme-labeled instrument.
(§6) ABTS+ free radical scavenging activity is calculated according to the following formula: ABTS+ free radical scavenging rate (%) = [(A0-A1)/A0] × 100%, where A0 is the absorbance of ABTS+ free radical solution, and A1 is the absorbance of sample group. […]
(§7) Figure S14. Quantitative analysis of immunofluorescent staining of macrophages in Figure 5A and 5B. […]
(§8) Figure S16. Quantitative analysis of ROS fluorescent intensities (A) in Figure 5D, and fluorescent ratio of JC-1 in aggregate to monomer (B) in Figure 5E. […]

[9] = DPPH free radical scavenging test; settings: PBS (pH 7.2), 400 µM, 2 h, 25 °C, absorbance 517 nm, n = 3
Method: as §1, §2, §3, §4, §5, §6, §7, §8

COc1ccc2cc([C@H](C)C(=O)O)ccc2c1 [Npx, naproxen]
COX-2 expression at gene level and protein level [1]: downregulated COX-2 expression
Zeta Potential [2]: -20.3 mV
Effect on chondrocyte proliferation [3]: the proliferation decreased over time
PGE2 production [4]: reduced PGE2 production
Stride length ([5]; sham 12.83 cm, saline 7.57 cm): 9.42 cm
Hindpaw contact area ([5]; versus sham and saline): partial improvement
Expression of COX-2, TNF-α and IL-1β in joint sections [6]: significantly reduced the expression of COX-2
Morphology of assemblies (TEM) [7]: uneven aggregates
ABTS+ radical scavenging activity [8]: neglectable radical scavenge activity
DPPH radical scavenging activity [9]: neglectable radical scavenge activity
